# Measured values: US20130005696A1, “BUFADIENOLIDE DERIVATIVES, PREPARING PROCESS THEREOF, COMPOSITION COMPRISING THE SAME AND THE USE THEREOF” (priority 2011, published 2013)
# Tested on: human hepatic carcinoma HepG2 xenograft
# Assay: Therapeutic effect against HepG2 xenograft in nude mice
# Type: in vivo, Balb/c nude mice
# Conditions: 8 mg/kg iv, QW × 14 d
# Procedure: This experiment is to investigate the in vivo inhibitory effect of II1E-01.HCl on growth of human-derived hepatic carcinoma HepG2 cell, human-derived breast carcinoma MDA-MB-231 cell, human-derived lung carcinoma H460 cell, human-derived colon carcinoma HCT-116 cell, human-derived […] MV-4-11 cell xenografts in nude mice.
# Formulation of solvent control (5% anhydrous ethanol & 5% aqueous glucose solution): 2.5 mL anhydrous ethanol was added into a 50 mL tube, followed by addition of 47.5 mL 5% glucose solution for injection followed by shaking, and stored at room temperature before use.
# Formulation of the preparations of the compounds to be tested: formulations with concentrations of 0.4 mg/mL and 0.6 mg/mL were prepared respectively. An appropriate amount of II1E-01.HCl was weighted and put into a 50 mL tube, followed by addition of corresponding volume of solvent to get the desired concentration and mixed using a vortex mixer. After the solid was dissolved completely, the solution was subpackaged into 4 mL vials and stored at refrigerated condition (2-8° C.) until use.
# Experimental animals: Balb/c nude mice (male, six weeks old).
# HepG2 cells were in vitro cultured to be proliferated. The cells in the log phase of growth were collected and resuspended in DMEM serum-free medium, and then implanted subcutaneously into the axilla of the right forelimb of nude mice. After 11 days, the tumor size reached about 250 mm^3. The mice bearing the tumor were grouped according to the tumor size into 6 groups, including the group of solvent control, groups of positive controls (Rapamycin 10 mg/kg and Vinorelbine 8 mg/kg), and groups of low (2 mg/kg), middle (4 mg/kg) and high (6 mg/kg) dosages of the testing compound II1E-01.HCl. Each group was administered intravenously at tail. In the solvent control group, the solvent control solution was administered intravenously once every other day (QOD). In the low, middle and high dosage groups of II1E-01.HCl, II1E-01.HCl was administered intravenously once every other day (QOD). In the positive control groups, Rapamycin 10 mg/kg and Vinorelbine 8 mg/kg were administered once a week (QW). The animals were given the drugs for two weeks. In the two week time period, the growth of tumor and the body weight of the mice were observed.
# Two weeks after administering (the 25th day after the implantation), the tumor weight and inhibition rate were calculated, and results are listed in Table 5.
row,SMILES,Tumor Weight(g) Mean ± SE
1,"CCC1=C[C@@H]2CN(C1)Cc1c([nH]c3ccccc13)[C@@](C(=O)OC)(c1cc3c(cc1OC)N(C)[C@H]1[C@@](O)(C(=O)OC)[C@H](OC(C)=O)[C@]4(CC)C=CCN5CC[C@]31[C@@H]54)C2 [Vinorelbine, reference compound]",0.4719 ± 0.0660 g

# Same assay, conditions: 8 mg/kg iv, QW × 14 d, 8 mg/kg
row,SMILES,Inhibition Rate (%)
1,"CCC1=C[C@@H]2CN(C1)Cc1c([nH]c3ccccc13)[C@@](C(=O)OC)(c1cc3c(cc1OC)N(C)[C@H]1[C@@](O)(C(=O)OC)[C@H](OC(C)=O)[C@]4(CC)C=CCN5CC[C@]31[C@@H]54)C2 [Vinorelbine, reference compound]",38.36%

# Tested on: HeLa human cervical carcinoma cell line
# Assay: In vitro antitumor activity assay (SRB), HeLa
# Type: cell-based
# Conditions: Table 1, read-out: IC50, inhibitory activity on cell proliferation of HeLa cell line
# Text: HeLa human cervical carcinoma cell line, A-549 human non-small cell lung carcinoma cell line, NCI-H2228 human lung carcinoma cell line, NCI-H460 human lung carcinoma cell line, MDA-MB-231 human breast carcinoma cell line, MCF-7 human breast carcinoma cell line, Bel-7402 human hepatic carcinoma cell line, Hep3B human hepatic carcinoma cell line, QGY-7703 human hepatic carcinoma cell line, MV-4-11 human leukemic cell line, DAUDI human leukemic cell line, Jurkat human leukemic cell line, A498 renal carcinoma cell line, LoVo human colon carcinoma cell line, HCT1116 human colon carcinoma cell line, A431 human skin carcinoma cell line, PANC-1 human pancreatic carcinoma cell line, U87-MG human brain carcinoma cell line, SH-SY5Y human brain carcinoma cell line, RPMI-8226 human bone carcinoma cell line, HT1080 human fibrosarcoma cell line, PC-3 human prostatic carcinoma cell line, AGS human gastric adenocarcinoma cell line, and BGC-823 human gastric adenocarcinoma cell line were purchased from the Cell Bank of the Chinese Academy of Sciences.
# The positive control is bufalin (formulated according to the common method), its purity is 98% or more by HPLC-UV and its structure is identified by NMR. The compounds to be tested and the positive control were diluted with normal saline with a concentration gradient of 10^−4 M, 10^−5 M, 10^−6 M, 10^−7 M and 10^−8 M.
# According to cell growth rate, tumor cells in the log phase of growth were seeded into 96-well culture plates at 100 μL per well, and allowed to attach for 24 hours, followed by addition of a test compound or positive control at 10 μL per well. For each concentration, the test was carried out in triplicate wells. Solvent control wells with addition of normal saline into cell culture and a blank well containing only cell culture medium but without cells for zeroing were also included. The tumor cells were incubated for 72 hours at 37° C. under 5% CO2, and then the culture medium (RPMI-1640) was removed. The cells were fixed with 10% cool TCA by incubating for 1 h at 4° C., washed with distilled water for 5 times, and dried naturally in the air. A solution of SRB (Sigma) (4 mg/mL) in 1% glacial acetic acid was added at 100 μL per well, and the cells were stained for 15 minutes at room temperature, and the supernatant was discarded. The plates were washed for 5 times with 1% acetic acid, and dried in air. Finally, Tris solution was added at 150 μL per well, and the absorbance (A) was measured at a wavelength of 515 nm using a microplate reader. The growth inhibition on tumor cell proliferation was calculated according to the following equation:
# Growth Inhibition (%)=[(Absorbance of negative control−Absorbance of blank)−(Absorbance of sample−Absorbance of blank)]/(Absorbance of negative control−Absorbance of blank)×100%
# Drug concentration: 10 μM, 1 μM, 0.1 μM, 10 nM, 1 nM, 0.1 nM.
# IC50 was fitted by GraphPad Prism 4.
row,SMILES,IC50
1,C[C@]12CC[C@H](NC(=O)N3CCNCC3)C[C@H]1CC[C@@H]1[C@@H]2CC[C@]2(C)[C@@H](c3ccc(=O)oc3)CC[C@]12O [III1D-02],5.68 nM

# Same assay, conditions: read-out: IC50, inhibitory activity on cell proliferation of HeLa cell line
row,SMILES,IC50
1,CNCCCN(C)C(=O)O[C@H]1CC[C@@]2(C)[C@H](CC[C@@H]3[C@@H]2CC[C@]2(C)[C@@H](c4ccc(=O)oc4)CC[C@]32O)C1 [II1B-07],1.15 nM
2,C[C@]12CC[C@H](OC(=O)NCC3CCNCC3)C[C@H]1CC[C@@H]1[C@@H]2CC[C@]2(C)[C@@H](c3ccc(=O)oc3)CC[C@]12O [II1E-02],4.31 nM
3,C[C@]12CC[C@H](OC(=O)NCCCN)C[C@H]1CC[C@@H]1[C@@H]2CC[C@]2(C)[C@@H](c3ccc(=O)oc3)CC[C@]12O [II1B-10],1.82 nM
4,C[C@]12CC[C@H](OC(=O)N3CCN(S(C)(=O)=O)CC3)C[C@H]1CC[C@@H]1[C@@H]2CC[C@]2(C)[C@@H](c3ccc(=O)oc3)CC[C@]12O [II1D-10],16.3 nM
5,C[C@]12CC[C@H](OC(=O)N3CCC(O)CC3)C[C@H]1CC[C@@H]1[C@@H]2CC[C@]2(C)[C@@H](c3ccc(=O)oc3)CC[C@]12O [II1D-04],38 nM
6,C[C@]12CC[C@H](OC(=O)NCCN)C[C@H]1CC[C@@H]1[C@@H]2CC[C@]2(C)[C@@H](c3ccc(=O)oc3)CC[C@]12O [II1B-09],5.72 nM
7,C[C@]12CC[C@H](NC(=O)NC3CCNCC3)C[C@H]1CC[C@@H]1[C@@H]2CC[C@]2(C)[C@@H](c3ccc(=O)oc3)CC[C@]12O [III1E-01],7.2 nM
8,C[C@]12CC[C@H](OC(=O)N3CCNC3)C[C@H]1CC[C@@H]1[C@@H]2CC[C@]2(C)[C@@H](c3ccc(=O)oc3)CC[C@]12O [II1D-19],5.8 nM
9,CCN(CCN(C)C)C(=O)O[C@H]1CC[C@@]2(C)[C@H](CC[C@@H]3[C@@H]2CC[C@]2(C)[C@@H](c4ccc(=O)oc4)CC[C@]32O)C1 [II1B-04],2.17 nM
10,C[C@]12CC[C@H](NC(=O)NCC3CCCCN3)C[C@H]1CC[C@@H]1[C@@H]2CC[C@]2(C)[C@@H](c3ccc(=O)oc3)CC[C@]12O (stereo partly shown) [III1E-02],8.68 nM
11,CCNCCN(CC)C(=O)O[C@H]1CC[C@@]2(C)[C@H](CC[C@@H]3[C@@H]2CC[C@]2(C)[C@@H](c4ccc(=O)oc4)CC[C@]32O)C1 [II1B-06],1.11 nM
12,CN(C)C1CCN(C(=O)O[C@H]2CC[C@@]3(C)[C@H](CC[C@@H]4[C@@H]3CC[C@]3(C)[C@@H](c5ccc(=O)oc5)CC[C@]43O)C2)CC1 [II1D-25],5.44 nM
13,C[C@]12CC[C@H](NC(=O)N3CCCNCC3)C[C@H]1CC[C@@H]1[C@@H]2CC[C@]2(C)[C@@H](c3ccc(=O)oc3)CC[C@]12O [III1D-04],3.98 nM
14,CCOC(=O)CCNC(=O)N1CCN(C(=O)O[C@H]2CC[C@@]3(C)[C@H](CC[C@@H]4[C@@H]3CC[C@]3(C)[C@@H](c5ccc(=O)oc5)CC[C@]43O)C2)CC1 [II1D-07],2.6 nM
15,CN(C)CCNC(=O)O[C@H]1CC[C@@]2(C)[C@H](CC[C@@H]3[C@@H]2CC[C@]2(C)[C@@H](c4ccc(=O)oc4)CC[C@]32O)C1 [II1B-01],1.79 nM
16,C[C@]12CC[C@H](OC(=O)N3CCC(NCCO)CC3)C[C@H]1CC[C@@H]1[C@@H]2CC[C@]2(C)[C@@H](c3ccc(=O)oc3)CC[C@]12O [II1D-24],7.3 nM
17,CCNC1CCN(C(=O)O[C@H]2CC[C@@]3(C)[C@H](CC[C@@H]4[C@@H]3CC[C@]3(C)[C@@H](c5ccc(=O)oc5)CC[C@]43O)C2)CC1 [II1D-23],1.12 nM
18,CN1CCN(C(=O)O[C@H]2CC[C@@]3(C)[C@H](CC[C@@H]4[C@@H]3CC[C@]3(C)[C@@H](c5ccc(=O)oc5)CC[C@]43O)C2)CC1 [II1D-03],3.49 nM
19,C[C@]12CC[C@H](OC(=O)N3CCN(C(=O)c4ccccc4)CC3)C[C@H]1CC[C@@H]1[C@@H]2CC[C@]2(C)[C@@H](c3ccc(=O)oc3)CC[C@]12O [II1D-16],44.6 nM
20,CNC1CCN(C(=O)O[C@H]2CC[C@@]3(C)[C@H](CC[C@@H]4[C@@H]3CC[C@]3(C)[C@@H](c5ccc(=O)oc5)CC[C@]43O)C2)CC1 [II1D-22],7.34 nM
21,CN1CCN(C(=O)N[C@H]2CC[C@@]3(C)[C@H](CC[C@@H]4[C@@H]3CC[C@]3(C)[C@@H](c5ccc(=O)oc5)CC[C@]43O)C2)CC1 [III1D-03],41.6 nM
22,CC(=O)N1CCN(C(=O)O[C@H]2CC[C@@]3(C)[C@H](CC[C@@H]4[C@@H]3CC[C@]3(C)[C@@H](c5ccc(=O)oc5)CC[C@]43O)C2)CC1 [II1D-14],23.1 nM
23,COC(=O)c1ccccc1S(=O)(=O)N1CCN(C(=O)O[C@H]2CC[C@@]3(C)[C@H](CC[C@@H]4[C@@H]3CC[C@]3(C)[C@@H](c5ccc(=O)oc5)CC[C@]43O)C2)CC1 [II1D-12],41.8 nM

# Tested on: human non-small cell lung carcinoma A549 xenograft
# Assay: In vivo therapeutic effect against A549 xenograft in nude mice
# Conditions: A549 xenograft in nude mice; bufalin at 1.6 mg/kg
# Procedure: This experiment is to evaluate the in vivo therapeutic effects of compounds bufalin, II1D-06.HCl, II1E-01.HCl and II1B-02.HCl against human-derived lung carcinoma A549 cell xenograft in nude mice.
# Solvent control: 4% DMSO & 2% Tween-80 & 5% PEG-400 solution in normal saline
# Compounds to be tested: bufalin, II1B-02.HCl, II1E-01.HCl, II1D-06.HCl
# Formulating method: the compound was dissolved with DMSO into a stock solution, which was then diluted into an injection with a final DMSO concentration of 4%.
# Positive control: Rapamycin Formulating method: it was formulated into an injection with a final DMSO concentration of 4%.
# After the tumor size reaches about 200 mm^3, the mice bearing the tumor were grouped randomly into 8 groups according to the tumor size, including the groups of solvent control, positive control rapamycin 5 mg/kg, II1E-01.HCl 2 mg/kg, II1E-01.HCl 4 mg/kg, II1E-01.HCl 6 mg/kg, II1B-02.HCl 4 mg/kg, II1D-06.HCl 4 mg/kg, bufalin 1.6 mg/kg, wherein the dosage selection is based on that the maximum tolerable dosage is 1.6 mg/kg for bufalin and 6 mg/kg for II1E-01.HCl. Rapamycin was administered intravenously once a week (QW) and the other groups were administered intraperitoneally once every other day (QOD). The tumor was weighted after 21 days to calculate the inhibition rate. The equation for calculating inhibition rate (IR) is IR=(WC−WT)/WC×100%, wherein, WC represents the tumor weight of the control group, and WT represents the tumor weight of the treating group.
row,SMILES,"inhibition of growth of human lung carcinoma A549 xenograft, in words"
1,CCN(CC)CCNC(=O)O[C@H]1CC[C@@]2(C)[C@H](CC[C@@H]3[C@@H]2CC[C@]2(C)[C@@H](c4ccc(=O)oc4)CC[C@]32O)C1.Cl [II1B-02•HCl],significantly inhibit the growth

# Same assay, conditions: A549 xenograft, 4 mg/kg ip QOD, after 21 days
SMILES,Inhibition Rate (%),Tumor Weight(g) Mean ± SE
C[C@]12CC[C@H](OC(=O)N3CCCNCC3)C[C@H]1CC[C@@H]1[C@@H]2CC[C@]2(C)[C@@H](c3ccc(=O)oc3)CC[C@]12O.Cl [II1D-06•HCl],37.15%,1.0580 ± 0.0866 g
CCN(CC)CCNC(=O)O[C@H]1CC[C@@]2(C)[C@H](CC[C@@H]3[C@@H]2CC[C@]2(C)[C@@H](c4ccc(=O)oc4)CC[C@]32O)C1.Cl [II1B-02•HCl],58.34%,0.7013 ± 0.0707 g
